In patent publication US9783518B2, “Therapeutic agent and treatment method for ameliorating uremia” (Toray Industries, Inc., priority 2005, dated 2017):
“Also recorded” adds a separate entry of the source.

How the values were obtained:
[1] = test system: dog with chronic renal failure; test: Clinical score of uremic symptoms in dog with chronic renal failure (Case-H); type: in vivo
Description: Testing methods for the patients showing uremia caused by chronic renal failure, employed in Example 4 or later, will now be described. The criteria and evaluation items for the cats and dogs with chronic renal failure are as follows: Diagnosis of uremia and chronic renal failure were performed totally taking clinical findings (including findings of uremia) and the results of the blood test, blood biochemical analysis and urinalysis into consideration. As the clinical findings of uremia, existence and degree of polydipsia and diuresis, dehydration, anorexia, weight loss, vomiting symptom and state of dehydration were observed. Existence of chronic renal failure was judged based on the serum Cre value as generally employed. As reference data for grasping the degree of progress of chronic renal failure, BUN value was also monitored.
Evaluation of degree of improvement of the uremic symptoms was carried out as follows: From the clinical symptoms related to uremia, activity and appetite, which are unlikely to be overlooked and which can be observed universally from before to after the test period, were selected. […] The evaluation was carried out based on the total points (full points were 5 points). Thus, a higher point indicates more improvements in the clinical symptoms. […]

[2] = test system: dog with chronic renal failure; test: Adverse events in dog with chronic renal failure (Case-H); type: in vivo; details: 150 μg/capsule oral twice a day alone
Description: The subject patient to whom beraprost sodium was to be administered was a female dog (hybrid) of 14 years old with a body weight of 6.4 kg. The patient visited the hospital with chief complaints of anorexia and drastic decrease in activity. Based on the past history, clinical observations and results of clinical test, the dog was diagnosed as chronic renal failure. The clinical score at the first visit was as low as 2 points, and treatment with Covalzin at a dose of 200 mg/BID was started. […] In view of this, after obtaining consent by the client, treatment with Covalzin was stopped, and switched to administration of beraprost sodium alone. Beraprost sodium was diluted with polyethylene glycol (Wako) to attain a dose of 150 μg/capsule, and was divided into capsules (size 5 Shionogi Qualicaps). Beraprost sodium was orally administered twice a day at fasting. […] In the above-described series of therapy, feeding of a formula meal and infusion were not performed at all. […] Based on the above, it was first discovered that in chronic renal failure of dogs, in addition to cats, the effect of beraprost sodium to ameliorate uremic symptoms is clearly shown in spite of the fact that Serum Cre value and BUN value which are markers of renal function indicative of renal failure are continuously worsened.

[3] = test system: cats with chronic renal failure; test: Blood biochemical analysis and urinalysis (BUN, serum Cre, glucose) in cats with chronic renal failure; type: in vivo, cat; details: Case-G; for Cre: 40 μg/head/BID

## CC#CC[C@@H](C)[C@H](O)/C=C/[C@@H]1[C@H]2c3cccc(CCCC(=O)[O-])c3O[C@H]2C[C@H]1O.[Na+] (mixture of isomers) [beraprost sodium, Sodium rac-(1R,2R,3aS,8bS)-2,3,3a,8b-tetrahydro-2-hydroxy-1-[(E)-(3S,4RS)-3-hydroxy-4-methyloct-1-en-6-ynyl]-1H-cyclopenta[b][1]benzofuran-5-butanoate]
[1]; 150 μg/capsule oral twice a day alone, first month, 3 points before
  clinical score (full points 5): 4 points
[1]; after start of beraprost sodium alone
  uremic symptoms: quickly remitted and ameliorated
[2]
  adverse events such as diarrhea, vomiting: no adverse event; also recorded: no adverse action
[3]; 40 μg/head/BID tablets alone
  BUN value: almost kept constant
[3]; Day 28
  Cre: 2.79 mg/dL
[3]; Day 56
  Cre: 3.02 mg/dL
